Results taken from patent US20160223562A1, “Method for Determining the Concentration of a Peptide” (JPT Peptide Technologies GmbH, priority 2010, published 2016).
Square brackets hold non-standard residues; d marks the D form. Peptide text beside a SMILES is read from it. Tyr(3-NO2) = N[C@@H](Cc1ccc(O)c([N+](=O)[O-])c1)C(=O)O

Experiments:
[1] = target: T1, Trypsin (Sus scrofa, UniProt P00761); assay: Trypsin cleavage of C-terminal quantification tag -SA-nitroTyr-G from peptides, LC-MS with UV detection at 350 nm; format: biochemical; conditions: after reduction and alkylation, trypsin enzyme/substrate 1:50 over night at RT
T1 construct: purchased Promega Corporation V511
Protocol: 23 peptides carrying the C-terminal quantification-tag-SA-nitroTyr-G-OH (SEQ ID NO:2) were synthesized by Fmoc-based solid phase peptide synthesis and purified by HPLC. Each peptide was subjected to the following trypsin cleavage protocol:
(§1) Trypsin Activation: Trypsin (20 μg, sequencing grade modified trypsin, Promega Corporation, Madison, Wis., USA, catalogue no. V511, specific activity 16.965 u/mg) was dissolved in Trypsin resuspension buffer (200 μL, Promega, catalogue no. V542A, ingredient 50 mM acetic acid) and incubated for 15 min at 37° C.
(§2) Reduction and alkylation: The peptide (approx. 0.05 mg) was dissolved in 1 M urea and 100 mM fresh ammonium hydrogen carbonate (300 μL). TCEP (Tris(2-carboxyethyl) phosphine hydrochloride, 0.2 M, 7.5 μL, final concentration 5 mM) was added and the solution incubated at 37° C. for 1 h. After addition of iodoacetamide (0.5 M, 6.0 μL, final concentration 10 mM) the solution was incubated at RT in the dark for another 30 min. Digestion: The sample was digested with activated Trypsin solution (10 μL per well, 1.0 μg, resulting enzyme/substrate ratio 1:50) over night at RT. To stop the digestion, HCl (2 M, 8 μL final concentration 50 mM) and TFA (3.2 μL, final concentration 1%, pH<2) were added. Finally, the sample was analyzed by LC-MS at 350 nm.

[2] = target: T1, Trypsin; assay: Trypsin cleavage of N-terminal quantification tag Ac-nitroTyr-SGK- from peptides, LC-MS with UV detection at 350 nm; format: biochemical; conditions: for Kusebauch 24 h, RT: Percent Cleavage of Tag [by UV350 - Peptide-Tag vs. Tag]: trypsin protocol of example 9, 24 h
Protocol: as §1, §2
38 peptides carrying the N-terminal quantification-tag Ac-nitroTyr-SGK-(SEQ ID NO:32) were synthesized by SPOT synthesis (Table 3). The peptide sequences are based on two different amino acid sequences, which in each case contain 19 different amino acids N-terminally attached to lysine (the 20 naturally occurring amino acids except cysteine).
All peptides were subjected to the same trypsin cleavage protocol as described in example 9. It is apparent that the quantification tag is efficiently cleaved (>99%) in nearly all cases.

T1 sequence (P00761 9-231): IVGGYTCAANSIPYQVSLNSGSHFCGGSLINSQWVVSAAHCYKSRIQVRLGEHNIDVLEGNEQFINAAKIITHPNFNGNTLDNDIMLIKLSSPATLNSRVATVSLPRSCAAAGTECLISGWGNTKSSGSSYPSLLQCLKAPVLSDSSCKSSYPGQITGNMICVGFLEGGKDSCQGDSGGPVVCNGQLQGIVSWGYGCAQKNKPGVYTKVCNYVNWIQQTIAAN

Percent Cleavage of Tag [by UV at 350 nm] [1] [%] | cleavage efficiency in words ([2]; trypsin) | Kusebauch 24 h, RT: Percent Cleavage of Tag [by UV350 - Peptide-Tag vs. Tag] [2] [%] | Compound
100 | – | 100.0 | CC[C@H](C)[C@H](NC(=O)[C@H](Cc1ccccc1)NC(=O)[C@H](Cc1ccc(O)cc1)NC(=O)[C@H](Cc1c[nH]cn1)NC(=O)[C@@H](NC(=O)[C@@H](NC(=O)[C@H](CCCCN)NC(=O)CNC(=O)[C@H](CO)NC(=O)[C@H](Cc1ccc(O)c([N+](=O)[O-])c1)NC(C)=O)[C@@H](C)CC)[C@@H](C)O)C(=O)N[C@@H](CC(=O)O)C(=O)N[C@@H](CC(C)C)C(=O)N[C@@H](CC(N)=O)C(=O)N[C@@H](CCCCN)C(=O)O [Peptide 8, Ac-nitroTyr-SGKITHYFIDLN-K-OH] (Ac-[Tyr(3-NO2)]SGKITHYFIDLNK-OH)
100 | – | – | CC[C@H](C)[C@H](NC(=O)[C@H](CC(C)C)NC(=O)[C@@H](N)CCC(=O)O)C(=O)N[C@@H](Cc1ccccc1)C(=O)N[C@@H](CCC(N)=O)C(=O)N[C@@H](CCC(=O)O)C(=O)N[C@H](C(=O)N[C@@H](C)C(=O)N[C@@H](CCCNC(=N)N)C(=O)N[C@@H](CO)C(=O)N[C@@H](C)C(=O)N[C@@H](Cc1ccc(O)c([N+](=O)[O-])c1)C(=O)NCC(=O)O)[C@@H](C)O [Peptide 22] (H-ELIFQETARSA[Tyr(3-NO2)]G-OH)
– | – | 100.0 | CC(=O)N[C@@H](Cc1ccc(O)c([N+](=O)[O-])c1)C(=O)N[C@@H](CO)C(=O)NCC(=O)N[C@@H](CCCCN)C(=O)N[C@@H](CO)C(=O)N[C@H](C(=O)N[C@@H](C)C(=O)N[C@@H](CC(C)C)C(=O)N[C@@H](CO)C(=O)N[C@@H](CC(C)C)C(=O)N[C@@H](CC(=O)O)C(=O)N[C@@H](CC(=O)O)C(=O)N[C@H](C(=O)N[C@@H](CCCCN)C(=O)O)C(C)C)C(C)C [Peptide 36, Ac-nitroTyr-SGKSVALSLDDV-K-OH] (Ac-[Tyr(3-NO2)]SGKSVALSLDDVK-OH)
– | – | 100.0 | CC(=O)N[C@@H](Cc1ccc(O)c([N+](=O)[O-])c1)C(=O)N[C@@H](CO)C(=O)NCC(=O)N[C@@H](CCCCN)C(=O)N[C@H](C(=O)N[C@H](C(=O)N[C@@H](C)C(=O)N[C@@H](CC(C)C)C(=O)N[C@@H](CO)C(=O)N[C@@H](CC(C)C)C(=O)N[C@@H](CC(=O)O)C(=O)N[C@@H](CC(=O)O)C(=O)N[C@H](C(=O)N[C@@H](CCCCN)C(=O)O)C(C)C)C(C)C)[C@@H](C)O [Peptide 37, Ac-nitroTyr-SGKTVALSLDDV-K-OH] (Ac-[Tyr(3-NO2)]SGKTVALSLDDVK-OH)
– | – | 100.0 | CC(=O)N[C@@H](Cc1ccc(O)c([N+](=O)[O-])c1)C(=O)N[C@@H](CO)C(=O)NCC(=O)N[C@@H](CCCCN)C(=O)N[C@H](C(=O)N[C@H](C(=O)N[C@@H](C)C(=O)N[C@@H](CC(C)C)C(=O)N[C@@H](CO)C(=O)N[C@@H](CC(C)C)C(=O)N[C@@H](CC(=O)O)C(=O)N[C@@H](CC(=O)O)C(=O)N[C@H](C(=O)N[C@@H](CCCCN)C(=O)O)C(C)C)C(C)C)C(C)C [Peptide 38, Ac-nitroTyr-SGKVVALSLDDV-K-OH] (Ac-[Tyr(3-NO2)]SGKVVALSLDDVK-OH)
– | – | 100.0 | CC(=O)N[C@@H](Cc1ccc(O)c([N+](=O)[O-])c1)C(=O)N[C@@H](CO)C(=O)NCC(=O)N[C@@H](CCCCN)C(=O)N[C@@H](Cc1c[nH]c2ccccc12)C(=O)N[C@H](C(=O)N[C@@H](C)C(=O)N[C@@H](CC(C)C)C(=O)N[C@@H](CO)C(=O)N[C@@H](CC(C)C)C(=O)N[C@@H](CC(=O)O)C(=O)N[C@@H](CC(=O)O)C(=O)N[C@H](C(=O)N[C@@H](CCCCN)C(=O)O)C(C)C)C(C)C [Peptide 39, Ac-nitroTyr-SGKWVALSLDDV-K-OH] (Ac-[Tyr(3-NO2)]SGKWVALSLDDVK-OH)
– | – | 99.1 | CC(=O)N[C@@H](Cc1ccc(O)c([N+](=O)[O-])c1)C(=O)N[C@@H](CO)C(=O)NCC(=O)N[C@@H](CCCCN)C(=O)N[C@@H](Cc1ccc(O)cc1)C(=O)N[C@H](C(=O)N[C@@H](C)C(=O)N[C@@H](CC(C)C)C(=O)N[C@@H](CO)C(=O)N[C@@H](CC(C)C)C(=O)N[C@@H](CC(=O)O)C(=O)N[C@@H](CC(=O)O)C(=O)N[C@H](C(=O)N[C@@H](CCCCN)C(=O)O)C(C)C)C(C)C [Peptide 40, Ac-nitroTyr-SGKYVALSLDDV-K-OH] (Ac-[Tyr(3-NO2)]SGKYVALSLDDVK-OH)

More lines, now with the values behind:

Compound | Percent Cleavage of Tag [by UV at 350 nm] [1] [%] | cleavage efficiency in words ([2]; trypsin) | Kusebauch 24 h, RT: Percent Cleavage of Tag [by UV350 - Peptide-Tag vs. Tag] [2] [%]
CC(C)C[C@H](N)C(=O)N1CCC[C@H]1C(=O)N[C@@H](CC(N)=O)C(=O)NCC(=O)N[C@H](C(=O)N[C@@H](Cc1ccccc1)C(=O)N[C@H](C(=O)N1CCC[C@H]1C(=O)N[C@@H](CC(=O)O)C(=O)N[C@@H](Cc1ccccc1)C(=O)N[C@@H](CCC(N)=O)C(=O)N[C@@H](CCC(=O)O)C(=O)N[C@@H](Cc1ccccc1)C(=O)N[C@H](C(=O)N[C@@H](CC(N)=O)C(=O)N[C@@H](CCCCN)C(=O)N[C@@H](CO)C(=O)N[C@@H](C)C(=O)N[C@@H](Cc1ccc(O)c([N+](=O)[O-])c1)C(=O)NCC(=O)O)C(C)C)[C@@H](C)O)C(C)C [LPNGVFTPDFQEFVN-K-SA-nitroTyr-G] (H-LPNGVFTPDFQEFVNKSA[Tyr(3-NO2)]G-OH) | 95.4 | – | –
CC[C@H](C)[C@H](NC(=O)[C@@H](NC(=O)[C@@H](N)CO)C(C)C)C(=O)N[C@@H](CC(=O)O)C(=O)N1CCC[C@H]1C(=O)N[C@H](C(=O)N1CCC[C@H]1C(=O)N[C@@H](C)C(=O)N1CCC[C@H]1C(=O)N[C@H](C(=O)NCC(=O)N[C@@H](CC(=O)O)C(=O)N[C@@H](CO)C(=O)N[C@@H](Cc1c[nH]cn1)C(=O)N[C@H](C(=O)N[C@@H](CC(=O)O)C(=O)NCC(=O)N[C@@H](C)C(=O)N[C@@H](C)C(=O)N[C@@H](CCCCN)C(=O)N[C@@H](CO)C(=O)N[C@@H](C)C(=O)N[C@@H](Cc1ccc(O)c([N+](=O)[O-])c1)C(=O)NCC(=O)O)C(C)C)C(C)C)C(C)C [Peptide 2] (H-SVIDPVPAPVGDSHVDGAAKSA[Tyr(3-NO2)]G-OH) | 100 | – | –
CC[C@H](C)[C@H](NC(=O)[C@H](Cc1ccccc1)NC(=O)[C@H](Cc1ccc(O)cc1)NC(=O)[C@H](Cc1c[nH]cn1)NC(=O)[C@@H](NC(=O)[C@H](CC(=O)O)NC(=O)[C@H](CCCCN)NC(=O)CNC(=O)[C@H](CO)NC(=O)[C@H](Cc1ccc(O)c([N+](=O)[O-])c1)NC(C)=O)[C@@H](C)O)C(=O)N[C@@H](CC(=O)O)C(=O)N[C@@H](CC(C)C)C(=O)N[C@@H](CC(N)=O)C(=O)N[C@@H](CCCCN)C(=O)O [Peptide 3, Ac-nitroTyr-SGKDTHYFIDLN-K-OH] (Ac-[Tyr(3-NO2)]SGKDTHYFIDLNK-OH) | 100 | not efficiently cleaved | 60.2
CC[C@H](C)[C@H](NC(=O)[C@H](Cc1ccccc1)NC(=O)[C@H](Cc1ccc(O)cc1)NC(=O)[C@H](Cc1c[nH]cn1)NC(=O)[C@@H](NC(=O)[C@H](CCC(=O)O)NC(=O)[C@H](CCCCN)NC(=O)CNC(=O)[C@H](CO)NC(=O)[C@H](Cc1ccc(O)c([N+](=O)[O-])c1)NC(C)=O)[C@@H](C)O)C(=O)N[C@@H](CC(=O)O)C(=O)N[C@@H](CC(C)C)C(=O)N[C@@H](CC(N)=O)C(=O)N[C@@H](CCCCN)C(=O)O [Peptide 4, Ac-nitroTyr-SGKETHYFIDLN-K-OH] (Ac-[Tyr(3-NO2)]SGKETHYFIDLNK-OH) | 100 | – | 100.0
CC[C@H](C)[C@H](NC(=O)[C@H](Cc1ccccc1)NC(=O)[C@H](Cc1ccc(O)cc1)NC(=O)[C@H](Cc1c[nH]cn1)NC(=O)[C@@H](NC(=O)[C@H](Cc1ccccc1)NC(=O)[C@H](CCCCN)NC(=O)CNC(=O)[C@H](CO)NC(=O)[C@H](Cc1ccc(O)c([N+](=O)[O-])c1)NC(C)=O)[C@@H](C)O)C(=O)N[C@@H](CC(=O)O)C(=O)N[C@@H](CC(C)C)C(=O)N[C@@H](CC(N)=O)C(=O)N[C@@H](CCCCN)C(=O)O [Peptide 5, Ac-nitroTyr-SGKFTHYFIDLN-K-OH] (Ac-[Tyr(3-NO2)]SGKFTHYFIDLNK-OH) | 100 | – | 99.0
CC[C@H](C)[C@H](NC(=O)[C@H](Cc1ccccc1)NC(=O)[C@H](Cc1ccc(O)cc1)NC(=O)[C@H](Cc1c[nH]cn1)NC(=O)[C@@H](NC(=O)CNC(=O)[C@H](CCCCN)NC(=O)CNC(=O)[C@H](CO)NC(=O)[C@H](Cc1ccc(O)c([N+](=O)[O-])c1)NC(C)=O)[C@@H](C)O)C(=O)N[C@@H](CC(=O)O)C(=O)N[C@@H](CC(C)C)C(=O)N[C@@H](CC(N)=O)C(=O)N[C@@H](CCCCN)C(=O)O [Peptide 6, Ac-nitroTyr-SGKGTHYFIDLN-K-OH] (Ac-[Tyr(3-NO2)]SGKGTHYFIDLNK-OH) | 100 | – | 100.0
